Key:
Assay in all cases: relative viability (nuclei count vs DMSO), 5 days (fraction); higher = more cells survive
[1] = compound: O=S(=O)(c1ccccc1)N(CC(F)(F)F)c1ccc(C(O)(C(F)(F)F)C(F)(F)F)cc1 + N=C(N)NC(=N)NCCc1ccccc1 [Phenformin] (partner 250 µM)
In short: (§1)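 Dosing by pin tool came one day after lung cancer cell lines were seeded in 1536-well plates, using either one drug or a fixed anchor-drug dose plus five library-drug doses (not always all listed) in √10 steps. After 5 days, nuclei were counted on 4× images. Relative viability is treated-well nuclei count divided by vehicle-well nuclei count, and values are medians of duplicate plates.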

[2] = compound: O=S(=O)(c1ccccc1)N(CC(F)(F)F)c1ccc(C(O)(C(F)(F)F)C(F)(F)F)cc1 + CS(=O)(=O)CCNCc1ccc(-c2ccc3ncnc(Nc4ccc(OCc5cccc(F)c5)c(Cl)c4)c3c2)o1 [Lapatinib] (partner 2 µM)
In short: as §1

RO-3306 + Pictilisib = compound: C1=CC2=C(C=CC(=C2)C=C3C(=O)NC(=NCC4=CC=CS4)S3)N=C1 [RO-3306] + CS(=O)(=O)N1CCN(Cc2cc3nc(-c4cccc5[nH]ncc45)nc(N4CCOCC4)c3s2)CC1 [Pictilisib] (partner 1 µM)
In short: as §1

[3] = compound: O=S(=O)(c1ccccc1)N(CC(F)(F)F)c1ccc(C(O)(C(F)(F)F)C(F)(F)F)cc1 + CCNC(=O)c1noc(-c2cc(C(C)C)c(O)cc2O)c1-c1ccc(CN2CCOCC2)cc1 [Luminespib] (partner 0.01 µM)
In short: as §1

[4] = compound: O=S(=O)(c1ccccc1)N(CC(F)(F)F)c1ccc(C(O)(C(F)(F)F)C(F)(F)F)cc1 + Nc1ncn([C@H]2C[C@H](O)[C@@H](CO)O2)c(=O)n1 [Decitabine] (partner 2 µM)
In short: as §1

| Cell Line | relative viability ([1]; first compound 0.8 µM) | relative viability ([1]; first compound 2.53 µM) | relative viability ([1]; first compound 8 µM) | relative viability ([2]; first compound 0.8 µM) | relative viability ([2]; first compound 2.53 µM) | relative viability ([2]; first compound 8 µM) | relative viability (RO-3306 + Pictilisib; first compound 0.01 µM) | relative viability (RO-3306 + Pictilisib; first compound 0.03162 µM) | relative viability (RO-3306 + Pictilisib; first compound 0.1 µM) | relative viability (RO-3306 + Pictilisib; first compound 0.3162 µM) | relative viability (RO-3306 + Pictilisib; first compound 1 µM) | relative viability ([3]; first compound 0.8 µM) | relative viability ([3]; first compound 2.53 µM) | relative viability ([3]; first compound 8 µM) | relative viability ([4]; first compound 0.8 µM) | relative viability ([4]; first compound 2.53 µM) | relative viability ([4]; first compound 8 µM) |
| --- | --- | --- | --- | --- | --- | --- | --- | --- | --- | --- | --- | --- | --- | --- | --- | --- | --- |
| NCI-H23 | 0.828 | 0.743 | 0.699 | 1.24 | 1.24 | 1.14 | 0.507 | 0.468 | 0.433 | 0.451 | 0.433 | 0.2 | 0.206 | 0.255 | 0.292 | 0.28 | 0.352 |
| NCI-H322M | 0.882 | 0.812 | 0.819 | 0.684 | 0.602 | 0.655 | 0.493 | 0.486 | 0.485 | 0.556 | 0.585 | 1.13 | 0.946 | 1 | 0.685 | 0.721 | 0.663 |
| NCI-H358 | 0.265 | 0.236 | 0.261 | 0.434 | 0.383 | 0.417 | 0.308 | 0.387 | 0.319 | 0.321 | 0.31 | 0.195 | 0.332 | 0.352 |  | 0.19 | 0.129 |
| NCI-H441 | 1.16 | 0.905 | 0.813 |  |  |  | 0.491 | 0.332 | 0.387 | 0.607 | 0.451 | 0.317 | 0.37 | 0.372 | 0.238 | 0.212 | 0.21 |
| NCI-H460 | 0.613 | 0.469 | 0.451 |  | 0.834 | 0.779 | 0.388 | 0.374 | 0.371 | 0.329 | 0.32 | 0.034 | 0.0266 | 0.0324 | 0.681 | 0.462 | 0.349 |
| NCI-H522 | 0.721 | 0.736 | 0.727 |  |  |  |  |  |  |  |  | 1.39 | 1.27 | 1.07 | 0.565 | 0.608 | 0.746 |
| NCI-H1299 |  |  |  | 0.923 | 0.952 | 0.879 | 0.873 | 0.854 | 0.833 | 0.796 | 0.649 |  |  |  |  |  |  |
| NCI-H1563 | 0.676 | 0.637 | 0.675 | 0.85 | 0.899 | 0.761 | 0.641 | 0.597 | 0.69 | 0.62 | 0.59 | 0.545 | 0.485 | 0.551 |  |  |  |
| NCI-H1623 | 0.6 | 0.559 | 0.57 |  |  |  |  |  |  |  |  | 0.625 | 0.411 | 0.491 |  |  |  |
| NCI-H1648 |  |  |  |  |  |  |  |  |  |  |  |  |  |  | 0.462 | 0.546 | 0.595 |
| NCI-H1703 |  |  |  | 1.21 | 0.749 | 0.906 | 0.241 | 0.221 | 0.237 | 0.241 | 0.254 |  |  |  |  |  |  |
| NCI-H2228 | 0.319 | 0.286 | 0.293 | 1.32 | 0.964 | 1.5 | 0.456 | 0.37 | 0.363 | 0.381 | 0.269 | 0.154 | 0.165 | 0.122 |  |  |  |
| NCI-H2342 | 0.606 | 0.599 | 0.48 |  |  |  |  |  |  |  |  | 0.809 | 0.782 | 0.628 | 0.82 | 0.837 | 0.738 |
| SW 900 | 0.649 | 0.34 | 0.437 |  |  |  |  |  |  |  |  | 0.181 | 0.192 | 0.172 | 0.417 | 0.427 | 0.429 |
